# Source: patent publication US11718626B2, “Macrocyclic compounds for treatment of medical disorders” (Achillion Pharmaceuticals, Inc., priority 2017, dated 2023)
# Several values for one entry are separate records, joined by “and”; a condition that tells them apart may be missing. Identical values can stand only once. Like-named read-outs stand apart in the source and are kept apart here.
# Legend:
# [1] = rcm bond, toluene, 80.0 °C
# [2] = rcm bond, Grubbs II, toluene, 80.0 °C
compound,measurement,setting,value
CC(=O)c1nn2c3c(cc(-c4cnc(C)nc4)cc13)CCCCCCC=Cc1cn(nn1)C[C@@]13C[C@@H](C(=O)Nc4nc(Br)ccc4C)N(C(=O)C2)[C@@H]1C3,"ring closure, isolated yield","[1]; from C=CCCCCCCc1cc(-c2cnc(C)nc2)cc2c(C(C)=O)nn(CC(=O)N3[C@H](C(=O)Nc4nc(Br)ccc4C)C[C@@]4(Cn5cc(C=C)nn5)C[C@@H]34)c12, 20-membered ring, Grubbs II, 2.6 mM, 16.0 h",59.4%
same,"ring closure, yield after HPLC","[2]; from C=CCCCCCCc1cc(-c2cnc(C)nc2)cc2c(C(C)=O)nn(CC(=O)N3[C@H](C(=O)Nc4nc(Br)ccc4C)C[C@@]4(Cn5cc(C=C)nn5)C[C@@H]34)c12, 20-membered ring, 2.6 mM, 16.0 h",3.97%
same,"ring closure, yield after HPLC","[2]; from C=CCCCCCCc1cc(-c2cnc(C)nc2)cc2c(C(C)=O)nn(CC(=O)N3[C@H](C(=O)Nc4nc(Br)ccc4C)C[C@@]4(Cn5cc(C=C)nn5)C[C@@H]34)c12, 2.6 mM, 16.0 h",6.93%
CC(=O)c1nn2c3c(nc(-c4cnc(C)nc4)cc13)CC=CCCCC(=O)NC[C@@]13C[C@@H](C(=O)Nc4nc(C(F)(F)F)ccc4C)N(C(=O)C2)[C@@H]1C3,"ring closure, yield after HPLC","[2]; from C=CCCCC(=O)NC[C@@]12C[C@@H](C(=O)Nc3nc(C(F)(F)F)ccc3C)N(C(=O)Cn3nc(C(C)=O)c4cc(-c5cnc(C)nc5)nc(CC=C)c43)[C@@H]1C2, 17-membered ring, 1.4 mM",26.9%
CC(=O)c1nn2c3cc(ccc13)NC(=O)OCCCCC=CCOC[C@@]13C[C@@H](C(=O)Nc4nc(Br)ccc4C)N(C(=O)C2)[C@@H]1C3,"ring closure, isolated yield","[1]; from C=CCCCCOC(=O)Nc1ccc2c(C(C)=O)nn(CC(=O)N3[C@H](C(=O)Nc4nc(Br)ccc4C)C[C@@]4(COCC=C)C[C@@H]34)c2c1, 21-membered ring, Grubbs II, 1.7 mM, 16.0 h",51.2%
CC(=O)c1nn2c3cc(c(-c4cnc(C)nc4)cc13)OCCCCC=CCOC[C@@]13C[C@@H](C(=O)Nc4nc(Br)ccc4C)N(C(=O)C2)[C@@H]1C3,"ring closure, yield after HPLC","[2]; from C=CCCCCOc1cc2c(cc1-c1cnc(C)nc1)c(C(C)=O)nn2CC(=O)N1[C@H](C(=O)Nc2nc(Br)ccc2C)C[C@@]2(COCC=C)C[C@@H]12, 18-membered ring, 1.32 mM, 16.0 h",10.6% and 7.07%
CC(=O)c1nn2c3c(cc(-c4cnc(C)nc4)cc13)C=CCCCCCN(C)C[C@@]13C[C@@H](C(=O)Nc4nc(Br)ccc4C)N(C(=O)C2)[C@@H]1C3,"ring closure, isolated yield","[1]; from C=CCCCCCN(C)C[C@@]12C[C@@H](C(=O)Nc3nc(Br)ccc3C)N(C(=O)Cn3nc(C(C)=O)c4cc(-c5cnc(C)nc5)cc(C=C)c43)[C@@H]1C2, 17-membered ring, Zhan-1B, 4.38 mM",47.4%
CC(C)(C)OC(=O)N1[C@H]2C[C@@]3(CNC(=O)C(F)(F)CC=CCOCc4ccc(Br)nc4NC2=O)C[C@@H]13,"ring closure, isolated yield","[1]; from C=CCOCc1ccc(Br)nc1NC(=O)[C@@H]1C[C@@]2(CNC(=O)C(F)(F)CC=C)C[C@H]2N1C(=O)OC(C)(C)C, 17-membered ring, Grubbs II, 2.0 mM",96.5%
CC(=O)c1nn2c3cc(ccc13)C(=O)NCCCCC=CCOC[C@@]13C[C@@H](C(=O)Nc4nc(Br)ccc4C)N(C(=O)C2)[C@@H]1C3,"ring closure, isolated yield","[1]; from C=CCCCCNC(=O)c1ccc2c(C(C)=O)nn(CC(=O)N3[C@H](C(=O)Nc4nc(Br)ccc4C)C[C@@]4(COCC=C)C[C@@H]34)c2c1, 20-membered ring, Grubbs II, 1.44 mM, 16.0 h",45.6%
CC(=O)c1nn2c3c(cc(-c4cnc(C)nc4)cc13)CCCCC=CCC=C[C@@]13C[C@@H](C(=O)Nc4nc(Br)ccc4C)N(C(=O)C2)[C@@H]1C3,"ring closure, isolated yield","[1]; from C=CCC=C[C@@]12C[C@@H](C(=O)Nc3nc(Br)ccc3C)N(C(=O)Cn3nc(C(C)=O)c4cc(-c5cnc(C)nc5)cc(CCCCC=C)c43)[C@@H]1C2, 17-membered ring, Grubbs II, 2.27 mM, 16.0 h",21.8%
CC(C)(C)OC(=O)N1[C@H]2C[C@@]3(CNC(=O)C(C)(C)CC=CCOCc4ccc(Br)nc4NC2=O)C[C@@H]13,"ring closure, isolated yield","[1]; from C=CCOCc1ccc(Br)nc1NC(=O)[C@@H]1C[C@@]2(CNC(=O)C(C)(C)CC=C)C[C@H]2N1C(=O)OC(C)(C)C, 17-membered ring, Grubbs II, 3.14 mM, 16.0 h",83.1%
CC(C)(C)OC(=O)N1[C@H]2C[C@@]3(CCCC=CCOCc4ccc(Br)nc4NC2=O)C[C@@H]13,"ring closure, isolated yield","[1]; from C=CCCC[C@@]12C[C@@H](C(=O)Nc3nc(Br)ccc3COCC=C)N(C(=O)OC(C)(C)C)[C@@H]1C2, 15-membered ring, Grubbs II, 1.87 mM",70.4%
CN1CCCCCC=C[C@@]23C[C@@H](C(=O)Nc4nc(Br)ccc4C1)N(C(=O)OC(C)(C)C)[C@@H]2C3,"ring closure, isolated yield","[1]; from C=CCCCCCN(C)Cc1ccc(Br)nc1NC(=O)[C@@H]1C[C@@]2(C=C)C[C@H]2N1C(=O)OC(C)(C)C, 16-membered ring, Grubbs II, 1.78 mM, 16.0 h",72.4%
"tert-Butyl (41R,43S,45R,E)-16-Bromo-8,8-difluoro-3,7-dioxo-13-oxa-42,2,6-triaza-1(2,3)-pyridina-4(3,5)-bicyclo[3.1.0]hexanacyclotetradecaphan-10-ene-42-carboxylate","ring closure, isolated yield","[1]; 17-membered ring, Grubbs II, 2.0 mM",96.5%
"tert-Butyl (42S,44R,E)-16-Bromo-44-fluoro-3-oxo-6-oxa-2-aza-1(2,3)-pyridina-4(2,4)-pyrrolidinacyclotridecaphan-12-ene-41-carboxylate","ring closure, isolated yield","[1]; 16-membered ring, Grubbs II, 1.83 mM",59.3%
CC(=O)c1nn2c3cc(ccc13)NC(=O)OCCCC=CCOC[C@@]13C[C@@H](C(=O)Nc4nc(Br)ccc4C)N(C(=O)C2)[C@@H]1C3,"ring closure, yield after HPLC","[2]; from C=CCCCOC(=O)Nc1ccc2c(C(C)=O)nn(CC(=O)N3[C@H](C(=O)Nc4nc(Br)ccc4C)C[C@@]4(COCC=C)C[C@@H]34)c2c1, 20-membered ring, 2.0 mM, 2.0 h",68.5%
CC(=O)c1nn2c3c(cc(-c4cnc(C)nc4)cc13)CCCCC=CCc1cccc(n1)OC[C@@]13C[C@@H](C(=O)Nc4nc(Br)ccc4C)N(C(=O)C2)[C@@H]1C3,"ring closure, yield after HPLC","[2]; from C=CCCCCc1cc(-c2cnc(C)nc2)cc2c(C(C)=O)nn(CC(=O)N3[C@H](C(=O)Nc4nc(Br)ccc4C)C[C@@]4(COc5cccc(CC=C)n5)C[C@@H]34)c12, 1.6 mM, 16.0 h",78.1%
CN1CCCCC=CCc2ccc(Br)nc2NC(=O)[C@@H]2C[C@]3(C[C@H]3N2C(=O)OC(C)(C)C)C1,"ring closure, isolated yield","[1]; from C=CCCCCN(C)C[C@@]12C[C@@H](C(=O)Nc3nc(Br)ccc3CC=C)N(C(=O)OC(C)(C)C)[C@@H]1C2, 16-membered ring, Grubbs II, 1.83 mM",93.5%
CC(=O)c1nn2c3c(cc(-c4cnc(C)nc4)cc13)CC=CCCCC(=O)N(C)C[C@@]13C[C@@H](C(=O)Nc4ccc(C)c(C(F)(F)F)n4)N(C(=O)C2)[C@@H]1C3,"ring closure, isolated yield","[1]; from C=CCCCC(=O)N(C)C[C@@]12C[C@@H](C(=O)Nc3ccc(C)c(C(F)(F)F)n3)N(C(=O)Cn3nc(C(C)=O)c4cc(-c5cnc(C)nc5)cc(CC=C)c43)[C@@H]1C2, 17-membered ring, Grubbs II, 1.24 mM",70.6%
CC(=O)c1nn2c3c(cc(-c4cnc(C)nc4)cc13)CCC=CCCCC(=O)NC[C@@]13C[C@@H](C(=O)Nc4nc(Br)ccc4C)N(C(=O)C2)[C@@H]1C3,"ring closure, yield after HPLC","[2]; from C=CCCCC(=O)NC[C@@]12C[C@@H](C(=O)Nc3nc(Br)ccc3C)N(C(=O)Cn3nc(C(C)=O)c4cc(-c5cnc(C)nc5)cc(CCC=C)c43)[C@@H]1C2, 17-membered ring, 7.0 mM, 2.5 h",15.8%
same,"ring closure, yield after HPLC","[2]; from C=CCCCC(=O)NC[C@@]12C[C@@H](C(=O)Nc3nc(Br)ccc3C)N(C(=O)Cn3nc(C(C)=O)c4cc(-c5cnc(C)nc5)cc(CCC=C)c43)[C@@H]1C2, 18-membered ring, 7.0 mM, 2.5 h",11.6%
CC(=O)c1nn2c3c(cc(-c4cnc(C)nc4)cc13)CCCCC=CCc1cccc(c1)COC[C@@]13C[C@@H](C(=O)Nc4nc(Br)ccc4C)N(C(=O)C2)[C@@H]1C3,"ring closure, isolated yield","[1]; from C=CCCCCc1cc(-c2cnc(C)nc2)cc2c(C(C)=O)nn(CC(=O)N3[C@H](C(=O)Nc4nc(Br)ccc4C)C[C@@]4(COCc5cccc(CC=C)c5)C[C@@H]34)c12, 21-membered ring, Grubbs II, 1.83 mM, 16.0 h",40.9%
CC(C)(C)OC(=O)N1[C@H]2C[C@@]3(Cc4nc(no4)C=CCOCc4ccc(Br)nc4NC2=O)C[C@@H]13,"ring closure, isolated yield","[1]; from C=CCOCc1ccc(Br)nc1NC(=O)[C@@H]1C[C@@]2(Cc3nc(C=C)no3)C[C@H]2N1C(=O)OC(C)(C)C, 16-membered ring, Zhan-1B, 1.75 mM, 16.0 h",56.2%
"(41R,43S,45S,E)-13-Acetyl-N-(6-bromo-3-methylpyridin-2-yl)-3,14-dioxo-11H-6,15-dioxa-42,13-diaza-1(1,6)-indazola-4(2,5)-bicyclo[3.1.0]hexanacyclopentadecaphan-8-ene-43-carboxamide","ring closure, isolated yield","[1]; 20-membered ring, Grubbs II, 1.48 mM",4.1%
CC(=O)c1nn2c3cc(ccc13)NC(=O)NCCCC=CCOC[C@@]13C[C@@H](C(=O)Nc4nc(Br)ccc4C)N(C(=O)C2)[C@@H]1C3,"ring closure, yield after HPLC","[2]; from C=CCCCNC(=O)Nc1ccc2c(C(C)=O)nn(CC(=O)N3[C@H](C(=O)Nc4nc(Br)ccc4C)C[C@@]4(COCC=C)C[C@@H]34)c2c1, 20-membered ring, 1.6 mM, 16.0 h",2.1%
Cc1ncc(-c2cc3c(C#N)nn4c3c(n2)CC=CCCCC(=O)NC[C@@]23C[C@@H](C(=O)Nc5nc(Br)ccc5C)N(C(=O)C4)[C@@H]2C3)cn1,"ring closure, isolated yield","[1]; from C=CCCCC(=O)NC[C@@]12C[C@@H](C(=O)Nc3nc(Br)ccc3C)N(C(=O)Cn3nc(C#N)c4cc(-c5cnc(C)nc5)nc(CC=C)c43)[C@@H]1C2, 17-membered ring, Grubbs II, 1.27 mM, 16.0 h",44.8%
CC(=O)c1nn2c3c(cc(-c4cnc(C)nc4)cc13)CCCCCCC=CCOC[C@@]13C[C@@H](C(=O)Nc4nc(Br)ccc4C)N(C(=O)C2)[C@@H]1C3,"ring closure, isolated yield","[1]; from C=CCCCCCCc1cc(-c2cnc(C)nc2)cc2c(C(C)=O)nn(CC(=O)N3[C@H](C(=O)Nc4nc(Br)ccc4C)C[C@@]4(COCC=C)C[C@@H]34)c12, 19-membered ring, Grubbs II, 3.0 mM, 4.0 h",88.7%
